Numbered stars: 1 amine (or outer) side, 2 acyl side, 3 side chain; on linkers, the order of the positions; unused ones are H or OH. Square brackets hold non-standard residues; d marks the D form. Side chains are listed from the residue outwards. Peptide text beside a SMILES is read from it. * marks the point of attachment. C20 diacid = O=C(O)CCCCCCCCCCCCCCCCCCC(=O)*; γGlu = O=C(O)[C@H](CCC(=O)[*:2])N[*:1]; 1Nal = N[C@@H](Cc1cccc2ccccc12)C(=O)O; AEEA = NCCOCCOCC(=O)O; Aib = CC(C)(N)C(=O)O
What was measured:
[1] = target: Human GCGR (Homo sapiens, UniProt P47871); assay: Functional hGCGR cAMP assay in HEK-293 clonal cells
[2] = target: T1, human GIP-R (Homo sapiens, UniProt P48546); assay: Functional hGIP-R cAMP assay in HEK-293 clonal cells; conditions: HEK293, read-out: Human GIP-R Emax
T1 sequence (P48546 22-466): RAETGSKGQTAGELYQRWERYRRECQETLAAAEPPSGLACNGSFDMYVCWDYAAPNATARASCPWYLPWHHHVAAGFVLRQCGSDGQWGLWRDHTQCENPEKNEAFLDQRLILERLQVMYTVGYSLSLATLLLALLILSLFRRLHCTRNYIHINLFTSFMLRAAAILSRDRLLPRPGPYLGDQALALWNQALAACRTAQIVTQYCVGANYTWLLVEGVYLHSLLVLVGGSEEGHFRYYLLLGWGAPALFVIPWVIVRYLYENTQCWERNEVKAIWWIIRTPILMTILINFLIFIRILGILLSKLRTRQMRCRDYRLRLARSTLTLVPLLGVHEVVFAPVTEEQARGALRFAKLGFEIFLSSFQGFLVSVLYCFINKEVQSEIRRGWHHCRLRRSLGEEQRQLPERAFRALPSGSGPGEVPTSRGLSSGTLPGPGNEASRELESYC
Protocol: (§1) After an incubation of 60 minutes at room temperature, the resulting increase in intracellular cAMP is quantitatively determined using the CisBio cAMP Dynamic 2 HTRF Assay Kit (Bedford, Mass.). Briefly, cAMP levels within the cell are detected by adding the cAMP-d2 conjugate in cell lysis buffer (20 μl) followed by the antibody anti-cAMP-Eu^3+-Cryptate, also in cell lysis buffer (20 μl). The resulting competitive assay is incubated for at least 60 minutes at room temperature, then detected using a PerkinElmer Envision® instrument with excitation at 320 nm and emission at 665 nm and 620 nm Envision units (emission at 665 nm/620 nm*10,000) are inversely proportional to the amount of cAMP present and are converted to nM cAMP per well using a cAMP standard curve. […] A relative EC50 value and percent top (Emax) is derived by non-linear regression analysis using the percent maximal response versus the concentration of the compound of the present invention, fitted to a four-parameter logistic equation.

[3] = target: T2, human GLP-1R (Homo sapiens, UniProt P43220); assay: Functional hGLP-1R cAMP assay in HEK-293 clonal cells; assay type: cell-based; conditions: HEK293; percent of maximal response of hGLP-1(7-36)NH2
T2 construct: expressed in transfected cells; host or cells: 293HEK, Hygromycin-selected; crude plasma membranes
Protocol: as §1

[4] = Pharmacokinetics in cynomolgus monkeys; assay type: in vivo; conditions: cynomolgus monkey, plasma, single SC 0.2 mg/kg, male monkeys, n = 2; for AUC(0-inf): read-out: Mean AUC0-inf; for half-life: read-out: Mean T1/2 (converted); for Tmax: read-out: Mean Tmax
Protocol: The compounds are administered by a single intravenous or subcutaneous dose (0.2 mg/kg) in 20 mM citrate buffer (pH 7.0) at a volume of 0.21 ml/kg. Blood is collected from each animal at 2, 4, 8, 12, 24, 48, 72, 96, 120, 144, 168, 204, 240, and 312 hours post-dosage. The plasma concentrations of compounds of the present invention are determined by a LC/MS method. Briefly, a compound of the present invention is extracted from 100% Monkey plasma sample (50 μl) diluted with 1×PBS (150 μl) and mixed with N-butanol (400 μl). Three distinct liquid layers are formed with the compound located in the top layer. A volume of 200 μl is transferred to a v-bottom 96-well plate, dried down using heated Nitrogen gas and reconstituted with 100 μl of 30% acetonitrile/0.1% formic acid. 20 μl of the reconstituted sample is injected onto a Supelco Analytical Discovery bio wide C5 3 μm column. The column effluent is directed into a Thermo Q-Exactive mass spectrometer for detection and quantitation.

[5] = Weight loss, body composition and hepatic steatosis in DIO mice; assay type: in vivo, mouse; conditions: for Blood Glucose: Day 15
Protocol: The effects on weight loss, body composition and hepatic steatosis in DIO mice for compounds of the present invention are evaluated in C57/BL6 DIO mice. […] Animals are individually housed in a temperature-controlled (24° C.) facility with a 12 hour light/dark cycle (lights on 22:00), and free access to food and water. […] Daily body weight and food intake are measured throughout the study. Absolute changes in body weight are calculated by subtracting the body weight of the same animal prior to the first injection of compound. […] On Day 15, blood glucose is measured with Accu-Chek glucometer (Roche) from tail vein blood and then animals may be sacrificed and livers removed and frozen. Liver triglycerides, determined from homogenates of livers collected at sacrifice, and plasma cholesterol are measured on a Hitachi Modular P clinical analyzer. Statistical comparisons between groups are done using one-way ANOVA followed by Dunnett's multiple comparison test. The ED50 for weight loss lowering is determined in GraphPad Prism using the non-linear fit tool.

[6] = Rat in vivo insulin secretion following intravenous glucose (IVGTT); conditions: s.c. 16 hour prior to glucose
Protocol: Male Wistar rats (Harlan Labs, Indianapolis, Ind.) are randomized by body weight and dosed 1.5 ml/kg s.c. 16 hour prior to glucose administration and then fasted. Doses are vehicle, 0.1, 0.3, 1, 3 and 10 nmol/kg. Animals are weighed, and then anesthetized with sodium pentobarbital (Nembutal Sodium solution; Ovation Pharmaceuticals) dosed i.p. (65 mg/kg, 30 mg/ml). A time zero blood sample is collected into EDTA tubes after which glucose is administered ([…], 5 ml/kg). Blood samples are collected at 2, 4, 6, 10, 20, and 30 minutes post glucose. Plasma glucose levels are determined using a Hitachi analyzer (Roche) and plasma insulin is measured by the MSD insulin assay (Meso Scale, Gaithersburg, Md.).

[7] = target: T2, human GLP-1R; assay type: binding

Human GCGR, sequence (P47871 26-477): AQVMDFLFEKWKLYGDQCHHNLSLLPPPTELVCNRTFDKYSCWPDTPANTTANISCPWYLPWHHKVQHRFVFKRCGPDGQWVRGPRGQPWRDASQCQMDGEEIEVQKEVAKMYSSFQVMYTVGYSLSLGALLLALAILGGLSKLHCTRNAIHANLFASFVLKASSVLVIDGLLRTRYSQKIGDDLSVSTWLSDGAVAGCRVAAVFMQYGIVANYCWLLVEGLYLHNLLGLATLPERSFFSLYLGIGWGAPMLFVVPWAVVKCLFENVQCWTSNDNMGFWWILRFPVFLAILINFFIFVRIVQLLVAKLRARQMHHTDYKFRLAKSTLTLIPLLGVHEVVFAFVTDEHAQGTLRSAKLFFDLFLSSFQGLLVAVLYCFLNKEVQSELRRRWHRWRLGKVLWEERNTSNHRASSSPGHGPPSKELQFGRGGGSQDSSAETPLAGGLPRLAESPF
T2 sequence (P43220 24-463): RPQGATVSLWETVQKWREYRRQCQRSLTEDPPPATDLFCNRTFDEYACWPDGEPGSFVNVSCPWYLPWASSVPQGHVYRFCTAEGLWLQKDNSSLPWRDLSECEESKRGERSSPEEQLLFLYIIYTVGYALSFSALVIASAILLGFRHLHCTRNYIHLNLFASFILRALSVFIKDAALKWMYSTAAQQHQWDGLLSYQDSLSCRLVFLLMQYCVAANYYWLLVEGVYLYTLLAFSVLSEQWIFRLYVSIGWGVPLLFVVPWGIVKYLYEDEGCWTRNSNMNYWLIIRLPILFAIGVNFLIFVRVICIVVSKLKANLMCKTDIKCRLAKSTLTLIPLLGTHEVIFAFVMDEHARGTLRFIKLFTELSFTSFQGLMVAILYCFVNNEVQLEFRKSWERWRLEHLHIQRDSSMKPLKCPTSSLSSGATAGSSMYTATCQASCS

SMILES: CC[C@H](C)[C@H](NC(=O)[C@H](CC(C)C)NC(=O)[C@H](Cc1c[nH]c2ccccc12)NC(=O)[C@H](CCC(N)=O)NC(=O)[C@@H](NC(=O)[C@H](Cc1cccc2ccccc12)NC(=O)[C@H](C)NC(=O)[C@H](CCCCNC(=O)COCCOCCNC(=O)COCCOCCNC(=O)CC[C@H](NC(=O)CC[C@H](NC(=O)CCCCCCCCCCCCCCCCCCC(=O)O)C(=O)O)C(=O)O)NC(=O)[C@H](CCC(N)=O)NC(=O)[C@H](C)NC(=O)[C@@H](NC(=O)[C@H](CCCCN)NC(=O)[C@H](CC(=O)O)NC(=O)[C@H](CC(C)C)NC(=O)C(C)(C)NC(=O)[C@@H](NC(=O)[C@H](CO)NC(=O)[C@H](Cc1ccc(O)cc1)NC(=O)[C@H](CC(=O)O)NC(=O)[C@H](CO)NC(=O)[C@@H](NC(=O)[C@H](Cc1ccccc1)NC(=O)[C@@H](NC(=O)CNC(=O)[C@H](CCC(=O)O)NC(=O)C(C)(C)NC(=O)[C@@H](N)Cc1ccc(O)cc1)[C@@H](C)O)[C@@H](C)O)[C@@H](C)CC)[C@@H](C)CC)C(C)C)C(=O)N[C@@H](C)C(=O)NCC(=O)NCC(=O)N1CCC[C@H]1C(=O)N[C@@H](CO)C(=O)N[C@@H](CO)C(=O)NCC(=O)N[C@@H](C)C(=O)N1CCC[C@H]1C(=O)N1CCC[C@H]1C(=O)N1CCC[C@H]1C(=O)N[C@@H](CO)C(N)=O [Example 2] (H-Y[Aib]EGTFTSDYSI[Aib]LDKIAQK([AEEA-AEEA-γGlu-γGlu-C20 diacid])A[1Nal]VQWLIAGGPSSGAPPPS-NH2)
- EC50 [1]: > 1000 nM
- Emax [2]: 94.7 ± 2%
- Emax [3]: 98.2 ± 5.5%
- CL/F [4]: 1.2 mL/h/kg
- Cmax [4]: 2100 ng/mL
- AUC(0-inf) [4]: 173 µg·h/mL
- half-life [4]: 43 h
- Tmax [4]: 24 h

SMILES: CC[C@H](C)[C@H](NC(=O)[C@H](CC(C)C)NC(=O)[C@H](Cc1c[nH]c2ccccc12)NC(=O)[C@H](CCC(N)=O)NC(=O)[C@@H](NC(=O)[C@H](Cc1ccccc1)NC(=O)[C@H](C)NC(=O)[C@H](CCCCNC(=O)COCCOCCNC(=O)COCCOCCNC(=O)CC[C@H](NC(=O)CC[C@H](NC(=O)CCCCCCCCCCCCCCCCCCC(=O)O)C(=O)O)C(=O)O)NC(=O)[C@H](CCC(N)=O)NC(=O)[C@H](C)NC(=O)[C@@H](NC(=O)[C@H](CCCCN)NC(=O)[C@H](CC(=O)O)NC(=O)[C@H](CC(C)C)NC(=O)C(C)(C)NC(=O)[C@@H](NC(=O)[C@H](CO)NC(=O)[C@H](Cc1ccc(O)cc1)NC(=O)[C@H](CC(=O)O)NC(=O)[C@H](CO)NC(=O)[C@@H](NC(=O)[C@H](Cc1ccccc1)NC(=O)[C@@H](NC(=O)CNC(=O)[C@H](CCC(=O)O)NC(=O)C(C)(C)NC(=O)[C@@H](N)Cc1ccc(O)cc1)[C@@H](C)O)[C@@H](C)O)[C@@H](C)CC)[C@@H](C)CC)C(C)C)C(=O)N[C@@H](C)C(=O)NCC(=O)NCC(=O)N1CCC[C@H]1C(=O)N[C@@H](CO)C(=O)N[C@@H](CO)C(=O)NCC(=O)N[C@@H](C)C(=O)N1CCC[C@H]1C(=O)N1CCC[C@H]1C(=O)N1CCC[C@H]1C(=O)N[C@@H](CO)C(N)=O [Example 5]
- % Change from starting body weight ([5]; Table 9, 10 nmol/kg): −23.42 ± 1.43 %
- % Change from starting fat mass ([5]; Table 9, 10 nmol/kg): −51.28 ± 1.89 %
- % Change from starting body weight ([5]; Table 9, 30 nmol/kg): −26.84 ± 3.14 %
- % Change from starting fat mass ([5]; Table 9, 30 nmol/kg): −62.77 ± 5.49 %
- % Change from starting body weight ([5]; Table 9, 100 nmol/kg): −37.86 ± 2.25 %
- % Change from starting fat mass ([5]; Table 9, 100 nmol/kg): −81.08 ± 1.68 %
- Liver Triglycerides ([5]; Table 12, 10 nmol/kg): 48.30 ± 8.14 mg/g tissue
- Plasma Cholesterol ([5]; Table 12, 10 nmol/kg): 126.6 ± 9.67 mg/dL
- Blood Glucose ([5]; Table 12, 10 nmol/kg): 111.00 ± 6.56 mg/dL
- Liver Triglycerides ([5]; Table 12, 30 nmol/kg): 39.60 ± 4.71 mg/g tissue
- Plasma Cholesterol ([5]; Table 12, 30 nmol/kg): 108.2 ± 13.84 mg/dL
- Blood Glucose ([5]; Table 12, 30 nmol/kg): 104.5 ± 5.30 mg/dL
- Liver Triglycerides ([5]; Table 12, 100 nmol/kg): 67.96 ± 13.53 mg/g tissue
- Plasma Cholesterol ([5]; Table 12, 100 nmol/kg): 108.6 ± 4.83 mg/dL
- Blood Glucose ([5]; Table 12, 100 nmol/kg): 105.3 ± 6.16 mg/dL
- EC50 [1]: > 1000 nM
- Emax [2]: 105 ± 2%
- Emax [3]: 105 ± 4%
- % max increase of insulin AUC [6]: 349 +/− 39%
- ED50 for insulin, rat IVGTT [6]: 1.02 nmol/kg

SMILES: CC[C@H](C)[C@H](NC(=O)[C@H](CC(C)C)NC(=O)[C@H](Cc1c[nH]c2ccccc12)NC(=O)[C@H](CCC(N)=O)NC(=O)[C@@H](NC(=O)[C@H](Cc1cccc2ccccc12)NC(=O)[C@H](C)NC(=O)[C@H](CCCCNC(=O)COCCOCCNC(=O)COCCOCCNC(=O)CC[C@H](NC(=O)CCCCCCCCCCCCCCCCCCC(=O)O)C(=O)O)NC(=O)[C@H](CCC(N)=O)NC(=O)[C@H](C)NC(=O)[C@@H](NC(=O)[C@H](CCCCN)NC(=O)[C@H](CC(=O)O)NC(=O)[C@H](CC(C)C)NC(=O)C(C)(C)NC(=O)[C@@H](NC(=O)[C@H](CO)NC(=O)[C@H](Cc1ccc(O)cc1)NC(=O)[C@H](CC(=O)O)NC(=O)[C@H](CO)NC(=O)[C@@H](NC(=O)[C@H](Cc1ccccc1)NC(=O)[C@@H](NC(=O)CNC(=O)[C@H](CCC(=O)O)NC(=O)C(C)(C)NC(=O)[C@@H](N)Cc1ccc(O)cc1)[C@@H](C)O)[C@@H](C)O)[C@@H](C)CC)[C@@H](C)CC)C(C)C)C(=O)N[C@@H](C)C(=O)NCC(=O)NCC(=O)N1CCC[C@H]1C(=O)N[C@@H](CO)C(=O)N[C@@H](CO)C(=O)NCC(=O)N[C@@H](C)C(=O)N1CCC[C@H]1C(=O)N1CCC[C@H]1C(=O)N1CCC[C@H]1C(=O)N[C@@H](CO)C(N)=O [Example 8] (H-Y[Aib]EGTFTSDYSI[Aib]LDKIAQK([AEEA-AEEA-γGlu-C20 diacid])A[1Nal]VQWLIAGGPSSGAPPPS-NH2)
- % Change from starting body weight ([5]; Table 10, 10 nmol/kg): −17.13 ± 0.81 %
- % Change from starting fat mass ([5]; Table 10, 10 nmol/kg): −34.20 ± 1.62 %
- % Change from starting body weight ([5]; Table 10, 30 nmol/kg): −25.27 ± 0.70 %
- % Change from starting fat mass ([5]; Table 10, 30 nmol/kg): −54.24 ± 2.35 %
- % Change from starting body weight ([5]; Table 10, 100 nmol/kg): −29.91 ± 2.03 %
- % Change from starting fat mass ([5]; Table 10, 100 nmol/kg): −65.23 ± 6.69 %
- Plasma Cholesterol ([5]; Table 13, 10 nmol/kg): 158.8 ± 7.57 mg/dL
- Blood Glucose ([5]; Table 13, 10 nmol/kg): 114.7 ± 4.61 mg/dL
- Plasma Cholesterol ([5]; Table 13, 30 nmol/kg): 139.4 ± 6.83 mg/dL
- Blood Glucose ([5]; Table 13, 30 nmol/kg): 117.1 ± 8.26 mg/dL
- Plasma Cholesterol ([5]; Table 13, 100 nmol/kg): 127.8 ± 6.34 mg/dL
- Blood Glucose ([5]; Table 13, 100 nmol/kg): 125.4 ± 6.30 mg/dL
- EC50 [1]: > 1000 nM
- Emax [2]: 108 ± 4%
- Emax [3]: 88.4 ± 2.3%
- Molar ratio of hGLP-1R/hGIP-R ([7]; normalized by factor 4.53 from native GIP and GLP-1 binding): 0.99
- Absolute ratio of hGLP-1R/hGIP-R ([7]; ratio of Ki values): 4.5
- CL/F [4]: 4.7 mL/h/kg
- Cmax [4]: 1000 ng/mL
- AUC(0-inf) [4]: 42.8 µg·h/mL
- half-life [4]: 23 h
- Tmax [4]: 10 h
- % max increase of insulin AUC [6]: 324 +/− 30%
- ED50 for insulin, rat IVGTT [6]: 6.13 nmol/kg

— patent US9474780B2, “GIP and GLP-1 co-agonist compounds” (Eli Lilly and Company, priority 2015, dated 2016)
